The text below walks through data of PMC5781335, “Identification of danthron as an isoform-specific inhibitor of HEME OXYGENASE-1/cytochrome P450 reductase interaction with anti-tumor activity” (Journal of Biomedical Science, 2018).

Test [1] concerns the target T1, heme oxygenase-1 (HO-1) (Homo sapiens, UniProt P09601).
T1 construct: gene HMOX1; Luc-HO-1 (N-terminal luciferase fusion); with cytochrome P450 reductase (CPR-GFP)
T1 sequence (P09601 1-288): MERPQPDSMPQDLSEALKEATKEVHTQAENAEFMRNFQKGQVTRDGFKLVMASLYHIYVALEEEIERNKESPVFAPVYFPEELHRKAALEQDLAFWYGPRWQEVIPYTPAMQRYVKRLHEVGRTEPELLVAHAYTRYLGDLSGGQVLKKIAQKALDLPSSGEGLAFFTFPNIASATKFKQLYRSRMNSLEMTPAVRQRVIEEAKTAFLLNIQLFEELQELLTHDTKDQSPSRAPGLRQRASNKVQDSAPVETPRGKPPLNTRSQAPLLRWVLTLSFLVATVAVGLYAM
T1 sequence (P16435 2-677 partner): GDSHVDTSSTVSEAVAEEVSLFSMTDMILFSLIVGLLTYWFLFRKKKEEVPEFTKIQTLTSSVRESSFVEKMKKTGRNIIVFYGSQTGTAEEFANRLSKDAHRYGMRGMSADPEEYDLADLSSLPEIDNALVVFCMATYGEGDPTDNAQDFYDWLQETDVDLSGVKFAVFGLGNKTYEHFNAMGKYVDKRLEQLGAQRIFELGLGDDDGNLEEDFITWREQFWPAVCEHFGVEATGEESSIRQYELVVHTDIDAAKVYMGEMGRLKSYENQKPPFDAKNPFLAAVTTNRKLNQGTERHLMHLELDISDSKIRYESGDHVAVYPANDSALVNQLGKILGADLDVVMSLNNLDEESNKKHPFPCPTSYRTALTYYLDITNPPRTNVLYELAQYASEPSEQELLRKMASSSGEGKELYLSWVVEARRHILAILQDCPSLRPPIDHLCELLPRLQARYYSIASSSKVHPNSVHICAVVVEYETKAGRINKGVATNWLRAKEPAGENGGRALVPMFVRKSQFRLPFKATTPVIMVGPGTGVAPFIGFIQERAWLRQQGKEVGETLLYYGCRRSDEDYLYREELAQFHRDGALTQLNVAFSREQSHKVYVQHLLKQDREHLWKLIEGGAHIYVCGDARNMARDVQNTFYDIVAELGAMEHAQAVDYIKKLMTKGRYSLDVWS
Description: cell-based BRET inhibition of HO-1/CPR interaction in HEK293T.

Test [2] has as its target T2, heme oxygenase-1 (HO-1) (Homo sapiens, UniProt P09601).
T2 construct: gene HMOX1; truncated human HO-1 (aa 13–260), C-terminal 6 x His-tag (pull-down); Luc-HO-1 (BRET); with cytochrome P450 reductase (CPR-GFP)
T2 sequence (P09601 13-260): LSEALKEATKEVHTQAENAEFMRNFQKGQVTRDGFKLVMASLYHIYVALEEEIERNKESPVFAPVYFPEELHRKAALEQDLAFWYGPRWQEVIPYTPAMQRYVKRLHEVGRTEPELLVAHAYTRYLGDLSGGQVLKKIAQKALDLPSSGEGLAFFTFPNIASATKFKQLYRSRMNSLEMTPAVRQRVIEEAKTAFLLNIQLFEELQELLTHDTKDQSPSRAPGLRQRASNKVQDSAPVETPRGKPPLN
T2 sequence (P16435 2-677 partner): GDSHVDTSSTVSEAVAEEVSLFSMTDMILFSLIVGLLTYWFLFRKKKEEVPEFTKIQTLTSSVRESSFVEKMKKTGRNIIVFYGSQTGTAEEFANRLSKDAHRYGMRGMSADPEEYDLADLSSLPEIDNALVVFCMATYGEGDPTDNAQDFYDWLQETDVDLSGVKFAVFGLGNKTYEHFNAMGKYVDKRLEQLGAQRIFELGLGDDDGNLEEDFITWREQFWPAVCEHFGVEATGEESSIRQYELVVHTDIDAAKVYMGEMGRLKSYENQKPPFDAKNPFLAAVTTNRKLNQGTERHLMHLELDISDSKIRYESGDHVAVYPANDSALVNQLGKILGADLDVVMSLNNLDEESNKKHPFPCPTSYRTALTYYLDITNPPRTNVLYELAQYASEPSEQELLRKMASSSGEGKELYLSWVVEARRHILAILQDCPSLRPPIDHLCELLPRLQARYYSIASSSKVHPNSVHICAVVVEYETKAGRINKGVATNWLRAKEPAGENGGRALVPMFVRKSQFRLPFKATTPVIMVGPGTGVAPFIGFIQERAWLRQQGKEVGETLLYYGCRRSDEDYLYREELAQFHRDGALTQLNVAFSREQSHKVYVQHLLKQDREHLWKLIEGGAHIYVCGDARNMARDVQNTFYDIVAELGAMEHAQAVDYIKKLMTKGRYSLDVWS
As to the kind of experiment: pull-down of purified His-HO-1 by resin-bound CPR-GFP ([…] danthron); IC50 from cell-based BRET. (In general: BRET reads energy transfer from a luciferase to a nearby fluorophore.)

Test [3] deals with T3, CPR construct with its carboxyl-terminus fused to GFP (CPR-GFP) (human, UniProt P16435 1-677).
T3 construct: human cytochrome P450 reductase (CPR) cDNA subcloned with GFP2 cDNA into a pCMV-2 vector; BRET acceptor; bait on anti-GFP Sepharose in the pull-down; also called cytochrome P450 reductase; source: HEK293T, transfected; not shown: GFP2, C-terminal, kept
T3 sequence (looked up): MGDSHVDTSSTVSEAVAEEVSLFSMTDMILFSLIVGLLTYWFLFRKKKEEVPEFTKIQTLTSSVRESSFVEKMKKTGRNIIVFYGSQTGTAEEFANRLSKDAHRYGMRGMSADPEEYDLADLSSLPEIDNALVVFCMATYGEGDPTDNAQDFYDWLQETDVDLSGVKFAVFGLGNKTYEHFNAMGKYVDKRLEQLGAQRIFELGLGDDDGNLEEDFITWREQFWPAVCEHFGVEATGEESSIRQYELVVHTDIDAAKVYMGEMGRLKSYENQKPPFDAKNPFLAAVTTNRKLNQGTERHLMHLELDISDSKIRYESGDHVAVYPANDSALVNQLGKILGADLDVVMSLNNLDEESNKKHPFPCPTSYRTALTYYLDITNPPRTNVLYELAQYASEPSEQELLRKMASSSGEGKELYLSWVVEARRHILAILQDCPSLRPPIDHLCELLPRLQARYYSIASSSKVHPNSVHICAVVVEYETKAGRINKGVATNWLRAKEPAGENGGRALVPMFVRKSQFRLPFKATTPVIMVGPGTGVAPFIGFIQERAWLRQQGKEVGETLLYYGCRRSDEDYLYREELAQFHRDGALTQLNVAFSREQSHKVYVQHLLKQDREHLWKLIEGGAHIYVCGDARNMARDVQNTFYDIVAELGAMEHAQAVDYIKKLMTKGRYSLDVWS
As to the kind of experiment: pull-down; CPR-GFP immunoprecipitated from HEK293T lysate on anti-GFP-affinity Sepharose, washed, incubated with 1 ug His-HO-1 or His-HO-2 in 100 ul buffer A (20 mM Tris-HCl pH 7.4, 100 mM NaCl) at room temperature for 1 h, without or with 10 uM danthron or anthrarufin; blot with anti-His and anti-GFP. The following applies: both partners purified.

Take `O=C1c2cccc(O)c2C(=O)c2c(O)ccc(O)c21` [1,4,5-trihydroxyanthra-9,10-quinone]: 10.4 µM corresponded to half-maximal inhibition against heme oxygenase-1 (HO-1) [1] (IC50). For `O=C1c2ccccc2C(=O)c2c(O)cccc21` [1-hydroxyanthra-9,10-quinone], the IC50 – broadly, the concentration that gives 50% inhibition – against heme oxygenase-1 (HO-1) [1] was 10.1 µM.

At heme oxygenase-1 (HO-1) [2], `O=C1c2cccc(O)c2C(=O)c2c(O)cccc21` [danthron] returned an IC50 of 2.09 µM.

B1: recombinant soluble His-tagged HO-2 (His-HO-2), human HO-2 construct (aa 33-288) (domain or fragment, UniProt P30519 33-288, looked up)
chain: LSELLKEGTKEAHDRAENTQFVKDFLKGNIKKELFKLATTALYFTYSALEEEMERNKDHPAFAPLYFPMELHRKEALTKDMEYFFGENWEEQVQCPKAAQKYVERIHYIGQNEPELLVAHAYTRYMGDLSGGQVLKKVAQRALKLPSTGEGTQFYLFENVDNAQQFKQLYRARMNALDLNMKTKERIVEEANKAFEYNMQIFNELDQAGSTLARETLEDGFPVHDGKGDMRKCPFYAAEQDKGALEGSSCPFRTAM
notes: human heme oxygenase-2, construct aa 33-288, in pQE-60 vector; not shown: His6, C-terminal, kept
For the molecule B1, the binding result in test [3] was “binds”.
